Experimental data taken from ChEMBL document CHEMBL5365543, “Benzamidine Conjugation Converts Expelled Potential Active Agents into Antifungals against Drug-Resistant Fungi” (J Med Chem, 2023).
Values after ≈ are worked out from the molar mass of the structure shown. Active and inactive are the calls of the source. The calls are words filed in the database; no cut-off is given here.

Assays:
[1] = Induction of hemolysis in mouse RBC cells at 2 to 32 microg/ml incubated for 60 mins by absorbance based analysis; assay type: toxicity, cell-based, Erythrocyte; conditions: red blood cells (erythrocytes), at 2 to 32 µg/mL, dose 2-32 µg/ml, read-out: Activity
[2] = Cytotoxicity against mouse L929 cells assessed as inhibition of cell growth measured after 4 hrs by MTT assay; assay type: toxicity, cell-based
Candida albicans [3] = test: Antifungal activity against wild-type Candida albicans SC5314 assessed as inhibition of fungal growth measured after 24 hrs by CLSI based microtiter plate analysis; assay type: functional; conditions: for MIC80: Candida albicans
[4] = Cytotoxicity against human HBE cells assessed as inhibition of cell growth measured after 4 hrs by MTT assay; assay type: toxicity, cell-based
Candida albicans [5] = test: microbe, parasite or virus in culture; assay type: functional; conditions: DSY654, time 24 hrs
Description: Antifungal activity against efflux pump-deficient Candida albicans DSY654 assessed as inhibition of fungal growth measured after 24 hrs by CLSI based microtiter plate analysis

Candida albicans [6] = test: Antifungal activity against clinical isolate fluconazole-resistant Candida albicans CA632 assessed as inhibition of fungal growth measured after 24 hrs by CLSI based microtiter plate analysis; assay type: functional
Candida albicans [7] = test: Antifungal activity against clinical isolate Candida albicans SCUPC2R14MPG2A harbouring UPC2 mutation overexpressing […] Erg11 assessed as inhibition of fungal growth measured after 24 hrs by CLSI based microtiter plate analysis; assay type: functional
Nakaseomyces glabratus = test: Antifungal activity against clinical isolate fluconazole-resistant Candida glabrata CG2 assessed as inhibition of fungal growth measured after 24 hrs by CLSI based microtiter plate analysis; assay type: functional
Candida albicans [8] = test: Antifungal activity against clinical isolate fluconazole-resistant Candida albicans G5 harbouring MRR1 mutation overexpressing MdrL assessed as inhibition of fungal growth measured after 24 hrs by CLSI based microtiter plate analysis; assay type: functional
Candida albicans [9] = test: Antifungal activity against clinical isolate Candida albicans YEM15 overexpressing efflux pump CdrL and Cdr2 assessed as inhibition of fungal growth measured after 24 hrs by CLSI based microtiter plate analysis; assay type: functional
[Candida] auris [10] = Antifungal activity against clinical isolate fluconazole-resistant Candida auris CBS12776 assessed as inhibition of fungal growth measured after 24 hrs by CLSI based microtiter plate analysis; assay type: functional; conditions: Candidozyma auris
Cryptococcus neoformans = test: Antifungal activity against clinical isolate fluconazole-resistant Cryptococcus neoformans H99 assessed as inhibition of fungal growth measured after 24 hrs by CLSI based microtiter plate analysis; assay type: functional
Candida albicans [11] = test: Antifungal activity against clinical isolate fluconazole-resistant Candida albicans Gu5 harbouring TAC1 mutation overexpressing efflux pump CdrL and Cdr2 assessed as inhibition of fungal growth measured after 24 hrs by CLSI based microtiter plate analysis; assay type: functional
Candida albicans [12] = test: Antifungal activity against clinical isolate fluconazole-resistant Candida albicans DSY296 harbouring TAC1 mutation overexpressing efflux pump CdrL and Cdr2 assessed as inhibition of fungal growth measured after 24 hrs by CLSI based microtiter plate analysis; assay type: functional
Candida albicans [13] = test: Antifungal activity against clinical isolate Candida albicans SCMRRIR34MPG2A harbouring MRR1 mutation overexpressing efflux pump MdrL assessed as inhibition of fungal growth measured after 24 hrs by CLSI based microtiter plate analysis; assay type: functional
[14] = Drug accumulation in wild-type Candida albicans SC5314 at 50 microg/ml incubated for 3 hrs by HPLC analysis; assay type: ADME; conditions: dose 50 µg/ml
Candida tropicalis = test: Antifungal activity against clinical isolate fluconazole-resistant Candida tropicalis CT10 assessed as inhibition of fungal growth measured after 24 hrs by CLSI based microtiter plate analysis; assay type: functional
[Candida] auris [15] = Antifungal activity against clinical isolate fluconazole-resistant Candida auris CBS12774 assessed as inhibition of fungal growth measured after 24 hrs by CLSI based microtiter plate analysis; assay type: functional; conditions: Candidozyma auris
Candida albicans [16] = test: Antifungal activity against clinical isolate Candida albicans YEM13 overexpressing efflux pump MdrL assessed as inhibition of fungal growth measured after 24 hrs by CLSI based microtiter plate analysis; assay type: functional

SMILES	MIC80 (Candida albicans [6]) [µg/mL]	MIC80 (Candida albicans [7]) [µg/mL]	MIC80 (Nakaseomyces glabratus) [µg/mL]	MIC80 (Candida albicans [8]) [µg/mL]	MIC (Candida albicans [3])	MIC80 (Candida albicans [3]; SC5314, 24 h, read-out: MIC80) [µg/mL]	MIC80 (Candida albicans [9]) [µg/mL]	MIC80 ([Candida] auris [10]) [µg/mL]	MIC80 (Cryptococcus neoformans) [µg/mL]	MIC80 (Candida albicans [11]) [µg/mL]	MIC80 (Candida albicans [12]) [µg/mL]	MIC80 (Candida albicans [13]) [µg/mL]	Drug uptake [14]	MIC80 (Candida tropicalis) [µg/mL]	MIC80 ([Candida] auris [15]) [µg/mL]	MIC80 (Candida albicans [16]) [µg/mL]	other results
C=C1C[C@@]23CC[C@H]4[C@@](C)(CCC[C@@]4(C)C(=O)OCCCn4c(CC)[n+](C)c5ccccc54)[C@@H]2CC[C@]1(O)C3.[I-]																	hemolysis at 1 h [1]: < 2%; IC50 at 4 h [2]: 16.5 µg/mL; MIC80 (Candida albicans [3]; SC5314, read-out: MIC80): 16 µg/mL; IC50 at 4 h [4]: > 32 µg/mL; MIC80 (Candida albicans [5]): 8 µg/mL
CC/C(=C(/CC)c1ccc(OCCCOc2ccc(C(=N)N)cc2)cc1)c1ccc(O)cc1	4 (≈ 9 µM)	4 (≈ 9 µM)	8 (≈ 18 µM)	4 (≈ 9 µM)	inactive	4 (≈ 9 µM)	4 (≈ 9 µM)	4 (≈ 9 µM)	8 (≈ 18 µM)	4 (≈ 9 µM)	4 (≈ 9 µM)	4 (≈ 9 µM)	Active	4 (≈ 9 µM)	4 (≈ 9 µM)	4 (≈ 9 µM)	
C=C1C(=O)[C@@]23CC[C@H]4[C@@](C)(CCC[C@@]4(C)C(=O)OCCCOc4ccc(C(=N)N)cc4)[C@@H]2CC[C@]1(O)C3	4 (≈ 7.86 µM)	4 (≈ 7.86 µM)	8 (≈ 15.7 µM)	4 (≈ 7.86 µM)		4 (≈ 7.86 µM)	4 (≈ 7.86 µM)	8 (≈ 15.7 µM)	8 (≈ 15.7 µM)	8 (≈ 15.7 µM)	4 (≈ 7.86 µM)	8 (≈ 15.7 µM)	Active	4 (≈ 7.86 µM)	8 (≈ 15.7 µM)	4 (≈ 7.86 µM)	
C[C@@H]1[C@H](O)[C@@H](C)/C=C/C=C/C=C/C=C/C=C/C=C/C=C/[C@H](O[C@@H]2O[C@H](C)[C@@H](O)[C@H](N)[C@@H]2O)C[C@@H]2O[C@](O)(C[C@@H](O)C[C@@H](O)[C@H](O)CC[C@@H](O)C[C@@H](O)CC(=O)O[C@H]1C)C[C@H](O)[C@H]2C(=O)O [AMPHOTERICIN B]	0.5 (≈ 0.541 µM)	0.5 (≈ 0.541 µM)	0.5 (≈ 0.541 µM)	0.5 (≈ 0.541 µM)		0.5 (≈ 0.541 µM)	2 (≈ 2.16 µM)	1 (≈ 1.08 µM)	1 (≈ 1.08 µM)	1 (≈ 1.08 µM)	0.5 (≈ 0.541 µM)			2 (≈ 2.16 µM)	1 (≈ 1.08 µM)	0.5 (≈ 0.541 µM)	
Cc1ccc(Sc2ccccc2N2CCN(CCCOc3ccc(C(=N)N)cc3)CC2)c(C)c1	4 (≈ 8.43 µM)	4 (≈ 8.43 µM)	8 (≈ 16.9 µM)	8 (≈ 16.9 µM)	inactive	4 (≈ 8.43 µM)	4 (≈ 8.43 µM)	8 (≈ 16.9 µM)	4 (≈ 8.43 µM)	4 (≈ 8.43 µM)	4 (≈ 8.43 µM)	4 (≈ 8.43 µM)	Active	4 (≈ 8.43 µM)	8 (≈ 16.9 µM)	4 (≈ 8.43 µM)	
C=C1C[C@@]2(CC)[C@@H](CC[C@@]2(O)c2cn(CCCOc3ccc(C(=N)N)cc3)nn2)[C@@H]2CCC3=CCCC[C@@H]3[C@@H]12	32 (≈ 60.4 µM)	64 (≈ 121 µM)	64 (≈ 121 µM)	64 (≈ 121 µM)	inactive	32 (≈ 60.4 µM)	64 (≈ 121 µM)	64 (≈ 121 µM)	64 (≈ 121 µM)	64 (≈ 121 µM)	64 (≈ 121 µM)	64 (≈ 121 µM)	Active	64 (≈ 121 µM)	64 (≈ 121 µM)	32 (≈ 60.4 µM)	
C=C1C[C@@]23CC[C@H]4[C@@](C)(CCC[C@@]4(C)C(=O)OCCC[P+](c4ccccc4)(c4ccccc4)c4ccccc4)[C@@H]2CC[C@]1(O)C3.[I-]																	hemolysis at 1 h [1]: 5.9%; IC50 at 4 h [2]: 6.94 µg/mL; MIC80 (Candida albicans [3]; SC5314, read-out: MIC80): 16 µg/mL; IC50 at 4 h [4]: 3.59 µg/mL; MIC80 (Candida albicans [5]): 16 µg/mL
C=CCc1ccc(O)c(-c2ccc(OCCCOc3ccc(C(=N)N)cc3)c(CC=C)c2)c1	8 (≈ 18.1 µM)	8 (≈ 18.1 µM)	16 (≈ 36.2 µM)	8 (≈ 18.1 µM)	inactive	8 (≈ 18.1 µM)	8 (≈ 18.1 µM)	16 (≈ 36.2 µM)	8 (≈ 18.1 µM)	8 (≈ 18.1 µM)	8 (≈ 18.1 µM)	8 (≈ 18.1 µM)	Active	16 (≈ 36.2 µM)	8 (≈ 18.1 µM)	8 (≈ 18.1 µM)	
C=CCc1ccc(OCCCOc2ccc(C(=N)N)cc2)c(-c2ccc(O)c(CC=C)c2)c1	8 (≈ 18.1 µM)	8 (≈ 18.1 µM)	16 (≈ 36.2 µM)	8 (≈ 18.1 µM)	inactive	8 (≈ 18.1 µM)	8 (≈ 18.1 µM)	16 (≈ 36.2 µM)	8 (≈ 18.1 µM)	8 (≈ 18.1 µM)	8 (≈ 18.1 µM)	8 (≈ 18.1 µM)	Active	16 (≈ 36.2 µM)	8 (≈ 18.1 µM)	8 (≈ 18.1 µM)	
N=C(N)c1ccc(OCCCN2CCC(=C3c4ccc(Cl)cc4CCc4cccnc43)CC2)cc1	32 (≈ 65.7 µM)	32 (≈ 65.7 µM)	64 (≈ 131 µM)	32 (≈ 65.7 µM)	inactive	32 (≈ 65.7 µM)	32 (≈ 65.7 µM)	64 (≈ 131 µM)	16 (≈ 32.9 µM)	64 (≈ 131 µM)	64 (≈ 131 µM)	32 (≈ 65.7 µM)	Active	32 (≈ 65.7 µM)	64 (≈ 131 µM)	32 (≈ 65.7 µM)	
CCOC(=O)C1=C(COCCNCCCOc2ccc(C(=N)N)cc2)NC(C)=C(C(=O)OC)C1c1ccccc1Cl (stereo not given)	4 (≈ 6.84 µM)	4 (≈ 6.84 µM)	8 (≈ 13.7 µM)	4 (≈ 6.84 µM)	inactive	4 (≈ 6.84 µM)	4 (≈ 6.84 µM)	8 (≈ 13.7 µM)	8 (≈ 13.7 µM)	4 (≈ 6.84 µM)	8 (≈ 13.7 µM)	8 (≈ 13.7 µM)	Active	4 (≈ 6.84 µM)	8 (≈ 13.7 µM)	4 (≈ 6.84 µM)	
